Experiments:
Hek293T = test: Cytotoxicity in Hek293T, CellTiterGlo; assay type: cell-based; details: 24 h
Protocol: For examination of cytotoxicity in these cancer cell lines the commercial available CellTiterGlo® Reagent (Promega, USA) was used according to the manufactor. Compounds were applied to Hek293T (denoted (1)) or HepG2 (denoted (2)), cultured in Dulbecco's Modified Eagles Medium, supplemented with 10% fetal calf serum and 1% penicillin/streptomycin. Cells were grown in T75 flasks at 37° C., 5% CO2 and trypsinized when 60-80% confluent by adding 2 ml of 0.25% Trypsin-EDTA solution. Cells were then re-suspended into culture medium yielding approx. 4000 cells (1) or 4500 cells (2), suspended in 30 microl medium. 48 h after cell seeding, compounds were added to yield the desired final concentrations. 24 h after compound addition cytotoxicity was evaluated. For this purpose the media was removed and CellTiterGlo® was added according to the manufactors manual. In this assay the luciferase emission readout is directly correlated with the cellular amount of ATP, low luciferase emission thus is reflecting cytotoxicity of a compound. For the evaluation of the IC50 the compound was applied in increasing concentrations yielding final concentrations per well of 5 nM-100 microM.

human fibroblasts HS-68 = test: Cell line specific cytotoxicity, count of Hoechst labeled nuclei, normal cells HS68; assay type: cell-based
Protocol: For examination of cell line-specific cytotoxicity, compounds were applied to human colorectal cancer cells (HCT116, denoted (1); SW480, denoted (2); Dld-1, denoted (3)) and human fibroblasts (HFF-1, denoted (4); HS-68, denoted (5)), cultured in Mc Coy's (1) and Dulbecco's Modified Eagles Medium (2-5), supplemented with 10% ((1)-(3)) and 20% ((4), (5)) fetal calf serum and 1% penicillin/streptomycin. Cells were grown in T75 flasks at 37° C., 5% CO2 and trypsinized when 60-80% confluent by adding 2 ml of 0.25% Trypsin-EDTA solution. Cells were then re-suspended into culture medium and approx. 750 cells, suspended in 45 microl medium, were plated into each well of a black 384-well plate for fluorescence imaging experiments. […] Compound incubation was terminated by (a) fixation and (b) permeabilisation of cells, followed by (c) fluorescence labeling of cell nuclei for cytometric quantification or by immunocytochemistry for microscopic evaluation of cell morphology. The three steps were performed by replacing the solution of the previous step in each well of a 384-well plate by (a) 30 microl PBS (phosphate buffered saline) containing 5% PFA (paraformaldehyde), (b) 30 microl PBS containing 0.2% TritonX-100 and (c) 10 microl PBS containing Hoechst-33342 for cytometry or Hoechst-33342, FITC (fluorescein isothiocyanate-) labeled α-tubulin antibodies and TRITC-(tetramethylrhodamine isothiocyanate-) labeled phalloidin antibodies for microscopy. Solutions were incubated for 15 (a,b) and 30 min (c) in the dark at room temperature. Cells were washed twice between each step with 30 microl PBS. The assay system was miniaturized and adapted to automated workflow using liquid-handling robotics.
Cell line-specific cytotoxicity was quantified by counting the number of Hoechst labeled nuclei per well of a 384-well plate using a plate cytometer. Data obtained with the cytometer was analysed using standard data analysis software. […]

In the case of `CCOC(=O)C1=C(C)Nc2c(c3nnc(-c4cccc(OC)c4)n3c(=O)n2-c2ccccc2)C1c1ccccc1` (stereo not drawn) [Example 15, 3-(3-Methoxy-phenyl)-7-methyl-4-oxo-5,9-diphenyl-4,5,6,9-tetrahydro-1,2,3a,5,6-pentaaza-cyclopenta[a]naphthalene-8-carboxylic acid ethyl ester], the “Normalized toxicity values (Hek293T)” value (Hek293T; 0.005 microM) is reported as 1.1205, the “Normalized toxicity values (Hek293T)” value (Hek293T; 0.015 microM) is reported as 1.0500 and the “Normalized toxicity values (Hek293T)” value (Hek293T; 0.046 microM) is reported as 1.2200. For the same molecule, the “Normalized toxicity values (Hek293T)” value (Hek293T; 0.137 microM) was 0.9283, the “Normalized toxicity values (Hek293T)” value (Hek293T; 0.412 microM) was 0.9603 and the “Normalized toxicity values (Hek293T)” value (Hek293T; 1.235 microM) was 0.8915. The “Normalized toxicity values (Hek293T)” value (Hek293T; 3.704 microM) was 1.0113, the “Normalized toxicity values (Hek293T)” value (Hek293T; 11.111 microM) was 1.1550 and the “Normalized toxicity values (Hek293T)” value (Hek293T; 33.333 microM) was 1.0515. The “Normalized toxicity values (Hek293T)” value (Hek293T; 100.000 microM) was 1.4175, the “Normalized cell count (HS68)” value (human fibroblasts HS-68; 0.005 micoM) was 1 and the “Normalized cell count (HS68)” value (human fibroblasts HS-68; 0.015 micoM) was 0.9166. The “Normalized cell count (HS68)” value (human fibroblasts HS-68; 0.046 micoM) was 1.018, the “Normalized cell count (HS68)” value (human fibroblasts HS-68; 0.137 micoM) was 0.9967 and the “Normalized cell count (HS68)” value (human fibroblasts HS-68; 0.412 micoM) was 0.9484. For the same molecule, the “Normalized cell count (HS68)” value (human fibroblasts HS-68; 1.235 micoM) was 0.961, the “Normalized cell count (HS68)” value (human fibroblasts HS-68; 3.704 micoM) was 0.9772 and the “Normalized cell count (HS68)” value (human fibroblasts HS-68; 11.111 micoM) was 0.9757. For the same molecule, the “Normalized cell count (HS68)” value (human fibroblasts HS-68; 33.333 micoM) was 0.9593 and the “Normalized cell count (HS68)” value (human fibroblasts HS-68; 100.000 micoM) was 0.9099.

For `CCOC(=O)C1=C(c2ccccc2)c2c(n(-c3ccccc3)c(=O)n3c(-c4cccc(OC)c4)nnc23)NC1C` (stereo not drawn) [Example 16, 3-(3-Methoxy-phenyl)-7-methyl-4-oxo-5,9-diphenyl-4,5,6,7-tetrahydro-1,2,3a,5,6-pentaaza-cyclopenta[a]naphthalene-8-carboxylic acid ethyl ester], the “Normalized toxicity values (Hek293T)” value (Hek293T; 0.005 microM) was 1.0215, the “Normalized toxicity values (Hek293T)” value (Hek293T; 0.015 microM) was 0.8660 and the “Normalized toxicity values (Hek293T)” value (Hek293T; 0.046 microM) was 0.8370. For the same molecule, the “Normalized toxicity values (Hek293T)” value (Hek293T; 0.137 microM) was 0.8375, the “Normalized toxicity values (Hek293T)” value (Hek293T; 0.412 microM) was 0.8593 and the “Normalized toxicity values (Hek293T)” value (Hek293T; 1.235 microM) was 0.8530. The “Normalized toxicity values (Hek293T)” value (Hek293T; 3.704 microM) was 0.8778, the “Normalized toxicity values (Hek293T)” value (Hek293T; 11.111 microM) was 0.9213 and the “Normalized toxicity values (Hek293T)” value (Hek293T; 33.333 microM) was 0.9450. The “Normalized toxicity values (Hek293T)” value (Hek293T; 100.000 microM) was 0.9233, the “Normalized cell count (HS68)” value (human fibroblasts HS-68; 0.005 micoM) was 1 and the “Normalized cell count (HS68)” value (human fibroblasts HS-68; 0.015 micoM) was 0.9904. The “Normalized cell count (HS68)” value (human fibroblasts HS-68; 0.046 micoM) was 1.038, the “Normalized cell count (HS68)” value (human fibroblasts HS-68; 0.137 micoM) was 1.056 and the “Normalized cell count (HS68)” value (human fibroblasts HS-68; 0.412 micoM) was 1.111. The “Normalized cell count (HS68)” value (human fibroblasts HS-68; 1.235 micoM) was 1.051, the “Normalized cell count (HS68)” value (human fibroblasts HS-68; 3.704 micoM) was 1.175 and the “Normalized cell count (HS68)” value (human fibroblasts HS-68; 11.111 micoM) was 1.144. The “Normalized cell count (HS68)” value (human fibroblasts HS-68; 33.333 micoM) was 0.8005 and the “Normalized cell count (HS68)” value (human fibroblasts HS-68; 100.000 micoM) was 0.9046.

`CCOC(=O)C1=C(c2ccccc2)c2c(n(-c3ccccc3)c(=O)n3c(-c4ccc(OC)cc4)nnc23)NC1C` (stereo not drawn) [Example 18] was tested, and the “Normalized toxicity values (Hek293T)” value (Hek293T; 0.005 microM) was 1.1075, the “Normalized toxicity values (Hek293T)” value (Hek293T; 0.015 microM) was 1.0110 and the “Normalized toxicity values (Hek293T)” value (Hek293T; 0.046 microM) was 1.0523. For the same molecule, the “Normalized toxicity values (Hek293T)” value (Hek293T; 0.137 microM) was 1.0088, the “Normalized toxicity values (Hek293T)” value (Hek293T; 0.412 microM) was 1.0313 and the “Normalized toxicity values (Hek293T)” value (Hek293T; 1.235 microM) was 1.0733. The “Normalized toxicity values (Hek293T)” value (Hek293T; 3.704 microM) was 1.1200, the “Normalized toxicity values (Hek293T)” value (Hek293T; 11.111 microM) was 1.0825 and the “Normalized toxicity values (Hek293T)” value (Hek293T; 33.333 microM) was 1.1175. The “Normalized toxicity values (Hek293T)” value (Hek293T; 100.000 microM) was 0.9883, the “Normalized cell count (HS68)” value (human fibroblasts HS-68; 0.005 micoM) was 1 and the “Normalized cell count (HS68)” value (human fibroblasts HS-68; 0.015 micoM) was 0.9938. For the same molecule, the “Normalized cell count (HS68)” value (human fibroblasts HS-68; 0.046 micoM) was 1.014, the “Normalized cell count (HS68)” value (human fibroblasts HS-68; 0.137 micoM) was 0.9488 and the “Normalized cell count (HS68)” value (human fibroblasts HS-68; 0.412 micoM) was 0.9736. The “Normalized cell count (HS68)” value (human fibroblasts HS-68; 1.235 micoM) was 1.014, the “Normalized cell count (HS68)” value (human fibroblasts HS-68; 3.704 micoM) was 0.7952 and the “Normalized cell count (HS68)” value (human fibroblasts HS-68; 11.111 micoM) was 0.5499. The “Normalized cell count (HS68)” value (human fibroblasts HS-68; 33.333 micoM) was 0.3651 and the “Normalized cell count (HS68)” value (human fibroblasts HS-68; 100.000 micoM) was 0.4385.

Source: US8629272B2, “Tricyclic pyrimidine derivatives as wnt antagonists” (Deutsches Krebsforschungszentrum, priority 2009, dated 2014)
